Experimental data published in patent publication US9068013B2, “Recombinant lectins, binding-site modified lectins and uses thereof” (SMART CELLS, INC., priority 2010, dated 2015).

Assays:
[1] = Gel formation with glycogen (OD490 turbidity); conditions: 10 mg/ml rCon A, 10 or 1 mg/ml glycogen, pH 7 BES buffer, 10 minutes room temperature
Experimental: rCon A synthesised and purified according to Examples 42-44 were tested for their ability to form gels with glycogen. Alpha methyl mannose present in the samples was initially removed as follows. Samples were added to BioSpin 30 columns (Bio-Rad, Hercules, Calif.) that had been previously equilibrated with deionized water. The BioSpin columns were centrifuged for 4 minutes at 1000×g, and the resulting eluent contained rCon A samples that had been substantially desalted and alpha methyl mannose removed. Samples were combined and A280 measurements were obtained. Typically, the A280 measurements correlated with the A280 measurements obtained before removal of alpha methyl mannose.
The following assay was then used to measure gel formation with glycogen. Unmodified Oyster glycogen Type II (Sigma Aldrich, St. Louis, Mo.) was dissolved at 10 mg/ml in pH 7, 200 mM BES buffer (Sigma Aldrich, St. Louis, Mo.). […] The plate was allowed to develop at room temperature for 10 minutes, after which time the turbidity of each plate well was assayed using a commercially available microplate reader (SpectraMAX, Molecular Devices, Mountain View, Calif.) at a wavelength of 490 nm (OD490). […]

[2] = test system: fasted normal non-diabetic rats; test: Blood glucose depression profile after subcutaneous injection; type: in vivo, rat (Male Sprague-Dawley); conditions: non-diabetic SD rats
Experimental: (§1) Blood glucose values were measured using commercially available test strips (Precision Xtra, Abbott Laboratories, Abbott Park, Ill.).
as §1, §1
Blood glucose values were measured using commercially available test strips (Precision Xtra, Abbott Laboratories, Abbott Park, Ill.). In addition, blood from each timepoint was centrifuged at 4 C to collect the serum.

[3] = subcutaneous, 0.25 ml of 20 U of equivalent insulin/ml

SCI-1: recombinant Con A construct, amino acid sequence SEQ ID NO: 1 (wild-type Con A)
gel formation with glycogen [1]: formed gels with glycogen that were comparable to gels formed by native (plant-derived) Con A controls

insulin-dextran: comparative insulin-dextran (MW 70K) conjugate made by CNBr coupling, 10% (w/w) insulin
time serum glucose levels remain depressed post injection [2, 3]: at least five | time to reach the glucose nadir (Tnadir) [2, 3]: about 3 hours

insulin-glycogen: comparative conjugate of insulin with oyster glycogen (Type II) by CNBr coupling, Example 32
glucose lowering compared to the insulin-dextran conjugates ([2]; 2.5 equivalent U of insulin/kg subcutaneous): lower glucose levels much more rapidly and to a greater extent
